Columns and labels:
[1] = in vivo; cited from earlier work
S. aureus USA300 = test: Murine model of peritoneal infection (survival, anti-virulence effect); format: in vivo, mice; settings: for anti-virulence activity against S. aureus infection in mice (percent survival): S. aureus 2×10^8 CFU i.p., n=10-18 (FIGS. 4-6); for anti-virulence effect: mice i.p. infected with S. aureus USA300, 50 μg i.p. once every day for 7 days, from one hour post infection; for anti-virulence effect, confirmation by repeating the mouse experiment: repeat of the mouse experiment; for in vivo efficacy, dose dependence: administered after infection for 7 days (FIG. 7)
Experimental: FIG. 4. Effect of Streptozotocin on survival. […] Open circles represent percent survival of treated mice (i.e., steptozotocin) after the indicated period. Closed circles represent percent survival of untreated mice (i.e., control). S. aureus (2×10^8 CFU) were i.p. injected into mice (n=10-18).
In this model, mice were i.p. infected with S. aureus USA300. One hour post infection, the test compounds were administered via i.p. injection once every day for 7 days.
To determine the minimal dosage of the compounds for their protective effect, a different amount of the compounds (0-100 μg) were administered after S. aureus infection for 7 days as described above.
The biological half-life of streptozotocin is about 35-40 min. […] Although we administered the compounds every day for 7 days, due to their short half-lives, it is likely that S. aureus cells were exposed to the compounds only briefly. […] To examine the hypothesis, after 2 h post infection with S. aureus, we administered the compounds only once (25 μg for streptozotocin and floxuridine; 50 μg for doxorubicin) and watched the infected mice for 7 days.

[2] = system: SaeRS two component system (P1 promoter); test: pYJ-P1-GFP reporter, Sae activity (P1 promoter activity); format: cell-based, S. aureus strain USA300; settings: grown in TSB for 3 h, various concentrations (FIG. 3B)
Experimental: FIG. 3B. Graph illustrating the effect of three compounds on Sae activity of Staphylococcus aureus. Cells were grown in TSB for 3 hours in the presence of the compounds (e.g., Streptozotocin, Floxuridine, and Doxorubicin) using various concentrations as indicated. The P1 promoter has two SaeR binding sites and its activity is an excellent indicator for the Sae activity.
The sae operon consists of four genes (saeP, saeQ, saeR, and saeS), and the two promoters P1 and P3. The P1 promoter resides in the front of the very first gene saeP and can transcribe all four genes. The P1 promoter has two SaeR binding sequences (SBSs). The P1 promoter in front of the sae operon is well characterized target of the SaeRS two component system. Here, the reporter plasmid pYJ-P1-GFP was used in the library screening and the expression level of GFP was interpreted as the Sae activity.
(§1) In the library screening, S. aureus strain USA300 was grown with pYJ-P1-GFP in the presence of 10 μM test compound for 3 hours. Then the effects of the each drug on growth and GFP expression were measured. In the primary screening, about 9,000 test compounds (3,000 FDA-approved drugs, 6,000 DCL library compounds) were tested.
(§2) Referring now to FIGS. 3A and 3B, the effects of the three compounds on growth (A) and Sae activity (B) of Staphylococcus aureus were measured. The cells were grown in TSB for 3 h in the presence of the compounds with various concentrations as indicated.

Staphylococcus aureus = test: Effect on growth of Staphylococcus aureus; format: cell-based; settings: grown in TSB for 3 h, various concentrations (FIG. 3A)
Experimental: FIG. 3A. Graph illustrating the effect of three compounds on growth of Staphylococcus aureus. Cells were grown in TSB for 3 hours in the presence of the compounds (e.g., Streptozotocin, Floxuridine, and Doxorubicin) using various concentrations as indicated.
as §1, §2

[3] = system: Agr quorum sensing system, Arl two-component system, SarA DNA binding protein; test: qRT-PCR of agrC, arlS, sarA transcription normalized by gyrB; format: cell-based, S. aureus USA300; settings: 1 μg/mL (=3.8 μM for streptozotocin, 4 μM for floxuridine), 3 h (FIG. 9)
Experimental: FIG. 9. Streptozotocin (SZ) and floxuridine (FU) repress other signalling systems critical for staphylococcal virulence. The transcription level of the indicated genes was analyzed by qRT-PCR and normalized by the transcription level of gyrB. agrC, the gene of the sensor kinase of the Agr quorum sensing system; arlS, the gene of the sensor kinase of the Arl two componenet system; sarA, the gene of the DNA binding protein SarA; NT, no treatment.
The virulence of S. aureus is thought to be controlled by multiple signaling systems. Along with the Sae signaling system, the Agr quorum sensing system, Arl two-component system, and SarA DNA binding protein are known to contribute to staphylococcal virulence. To explain the high in vivo efficacy of streptozotocin and floxuridine, S. aureus USA300 was treated with 1 μg/mL (=3.8 μM for streptozotocin, 4 μM for floxuridine) for 3 h, purified total RNA and carried out qRT-PCR.

| Structure (SMILES) | anti-virulence activity against S. aureus infection in mice (percent survival) (S. aureus USA300) | anti-virulence effect (S. aureus USA300) | anti-virulence effect, confirmation by repeating the mouse experiment (S. aureus USA300) | Sae activity (P1 promoter activity) [2] | growth of Staphylococcus aureus (Staphylococcus aureus) | transcription level of agrC, arlS, sarA (signaling systems critical for virulence) [3] | further results |
| --- | --- | --- | --- | --- | --- | --- | --- |
| O=c1[nH]cc(F)c(=O)[nH]1 [5-FU, 5′fluorouracil] | – | – | – | – | – | – | half-life [1]: 8 to 14 min |
| COc1cccc2c1C(=O)c1c(O)c3c(c(O)c1C2=O)C[C@@](O)(C(=O)CO)C[C@@H]3O[C@H]1C[C@H](N)[C@H](O)[C@H](C)O1 [Doxorubicin] | exhibited anti-virulence activity | anti-virulence effect | significant anti-virulence effect | reduced P1 promoter activity | reduced growth | – | – |
| O=C1OC2(c3ccccc31)c1cc(I)c(O)c(I)c1Oc1c2cc(I)c(O)c1I [Erythrosine sodium] | – | anti-virulence effect | – | – | – | – | – |
| O=c1[nH]c(=O)n([C@H]2C[C@H](O)[C@@H](CO)O2)cc1F [Floxuridine] | exhibited anti-virulence activity | anti-virulence effect | significant anti-virulence effect | reduced P1 promoter activity | reduced growth | inhibit multiple signaling systems | in vivo efficacy, dose dependence (S. aureus USA300; 10 μg): statistically significant in vivo efficacy; catabolism [1]: rapidly catabolized to 5′fluorouracil |
| CC(=O)[C@H]1CC[C@H]2[C@@H]3CC=C4C[C@@H](OC(=O)CCC(=O)O)CC[C@]4(C)[C@H]3CC[C@]12C [Pregnenolone succinate] | – | anti-virulence effect | – | – | – | – | – |
| CN(N=O)C(=O)NC1C(O)[C@H](O)C(CO)O[C@H]1O (stereo partly shown) [Streptozotocin] | exhibited anti-virulence activity | anti-virulence effect | significant anti-virulence effect | reduced P1 promoter activity | reduced growth | inhibit multiple signaling systems | in vivo efficacy, dose dependence (S. aureus USA300; 5 μg): statistically significant in vivo efficacy; in vivo efficacy, dose dependence (S. aureus USA300; 10-100 μg): comparable in vivo efficacy; biological half-life [1]: 35-40 min |
